We go through 1 compound from patent US20150224164A1, “TREATMENT OF AUTISM SPECTRUM DISORDERS USING GLYCYL-L-2-METHYLPROLYL-L-GLUMATIC ACID” (Neuren Pharmaceuticals Limited, priority 2013, published 2015).

The test system of one data set is MeCP2 deficient mice. The method, then:
We treated hemizygous MeCP2(1lox) male mice with 20 mg/kg/day of G-2-MePE or saline, (0.01% BSA, n=15 per group in survival experiment and n=20 in the LTP experiment). The treatments were administered intraperitoneally from 4 weeks after birth. For the survival experiments the treatment was maintained through the course of the experiment. For the LTP experiment the mice were treated until week 9 when they were used for slice preparation.
MeCP2 deficient mutant mice develop RTT symptoms at about 4-6 weeks of age and die between 10-12 weeks (Chen et al., 2001. Nat Genet 27: 327-331). We compared the survival of the wild type controls and the MeCP2 deficient animals in vehicle- and G-2-MePE-treated groups. Survival was measured weekly from start of treatment (4 weeks) and used to produce Kaplan-Meier survival curves to show the proportion of mice that survived (y axis) at each weekly interval (x axis) (see FIG. 22).

Data set [1] relates to hippocampal slices of heterozygous Shank3-deficient mice. Kind of data set: Hippocampal slice electrophysiology, Shank3-deficient mice (Example 13). It is filed as in vivo, mouse. To be noted: 15 or 60 mg/kg oral b.i.d. 14 days. The method, then:
1 to 3 month old wild type and heterozygous Shank3-deficient mice are divided into 4 treatment groups: placebo treated wild-type, placebo treated Shank3-deficient group and two Shank3-deficient G-2-MePE treated groups. The animals are given placebo (water) or G-2-MePE formulated in water administered orally, b.i.d for 14 days. G-2-MePE is administered at two doses: 15 or 60 mg/kg.
Post-mortem, acute hippocampal slices (350 μm) are prepared from mice using a tissue chopper. Slices are maintained and experiments are conducted at 32° C. Slices are perfused with Ringer's solution containing (in mM): NaCl, 125.0; KCl, 2.5; MgSO4, 1.3; NaH2PO4, 1.0; NaHCO3, 26.2; CaCl2, 2.5; glucose, 11.0. […] Slices are maintained for 1 hr prior to establishment of a baseline of field excitatory postsynaptic potentials (fEPSPs) recorded from stratum radiatum in area CA1, evoked by stimulation of the Schaffer collateral-commissural afferents (100 μs pulses every 30 s) with bipolar tungsten electrodes placed into area CA3. […] The EPSP initial slope (mV/ms) is determined from the average waveform of four consecutive responses. […] AMPA receptor-mediated and NMDA receptor-mediated I/O relationships are measured in the presence of ionotropic glutamate receptor antagonists: […] APV (50 μM) and 6-cyano-7-nitroquinoxaline-2,3-dione CNQX (100 μM). […]

Data set [2] relates to subjects with Rett Syndrome. Kind of data set: Placebo controlled study in subjects with Rett Syndrome (Example 15). It is filed as in vivo, human. An excerpt: Thirty subjects with Rett Syndrome are recruited. Subjects are female and aged between […] (Mean=12.1 SD=4.4). All subjects have an IQ<60 and mutations of the MECP2 gene. Subjects also show ether spike activity in the EEG or an increase in lower frequency bands of the EEG as detected by Fast Fourier Transform (FFT). Subjects are instructed that concomitant medications are to be stable for at least six weeks prior to study. Subjects receiving medication to treat signs of inattention are tested in the morning and instructed to take their medication in the afternoon. Subjects with QTc interval >451 msec are excluded.
The study is a randomized double blind placebo controlled parallel study with three doses of either placebo, 10 mg/kg T.I.D oral G-2-MePE for five days, or 30 mg/kg T.I.D. oral G-2-MePE.
Subjects are tested at baseline using the following instruments: The Rett Syndrome Natural History/Clinical Severity Scale, Aberrant Behavior Checklist Community Edition (ABC), Vinelands, Clinical Global Impression of Severity (CGI-S) and their carers completed the Caregiver Strain Questionnaire (CSQ).
Subjects are brought into clinic on an inpatient basis to enable initial baseline recordings of EEG, ECG and respiratory rate continuously for 24 hours using polysomnography technology. Hand movements are also recorded using the Q-Sensor™. Derived EEG measures include: spikes per unit time in the EEG, overall power of frequency bands of the EEG, QTc and heart rate variability (HRV), and respiratory irregularities.
Adverse events are also recorded using standard safety measures and the SMURF elicitation of adverse events
Statistically, the effect of treatment with G-2-MePE is analysed by conducting a repeated analysis of covariance (ANCOVA) on the effect of treatment on change from baseline scores.

The mark [3] stands for this setting: 30 mg/kg T.I.D. oral vs placebo.

“Also recorded” adds a separate entry of the source. Where a SMILES comes first, the peptide text is derived from it.

For `C[C@@]1(C(=O)N[C@@H](CCC(=O)O)C(=O)O)CCCN1C(=O)CN` [Example G-2-MePE, Glycyl-L-2-methylprolyl-L-glutamic acid] (HELM PEPTIDE1{G.[C[C@@]1(C(=O)[*:2])CCCN1[*:1]].E}$$$$V2.0), the “time at which 50% of the animals survived” value with MeCP2 deficient mice (20 mg/kg/day i.p. from 4 weeks, saline about 11 weeks) was “about 15 weeks”. Besides, the “time to 50 percent death, re-examination with control group re-run” value with MeCP2 deficient mice (20 mg/kg/day i.p., controls 13.5 weeks) came out at 16 weeks. For the same compound, the “time to 50 percent death, data initially presented” value in the data set with MeCP2 deficient mice (20 mg/kg/day i.p., untreated 11 weeks) was found to be 16 weeks. The “safety in mecp2 mice” value in the data set with MeCP2 deficient mice (mouse, in vivo) was “No safety concerns”. Besides, in data set [1], the “AMPA receptor-mediated field potentials, slope of I/O function” value was “normalizes”; the “hippocampal LTP and its maintenance” value is “increased hippocampal long-term potentiation”. Besides, in data set [2] (setting [3]), the EEG spike activity result is “decreases spike activity”; the “power of the delta band of the EEG” value is recorded as “decreases the power of the delta band”; the “subscales Nonverbal Communication, Epilepsy/Seizures, Hand use” value is reported as “significant effects”. In addition, in data set [2] (10 or 30 mg/kg T.I.D. oral), the “Serious Adverse Events” value is on record as “No Serious Adverse Events”, the “adverse events / tolerability” value is on record as “no more adverse events than are present during treatment with placebo; also recorded: well tolerated”, the “increases in QTC” value was “No instances of increases in QTC” and the “respiratory rate or heart rate variability” value is given as “No effects”. Further, the “Rett Syndrome Natural History/Clinical Severity Score, overall” value in data set [2] (human, in vivo) is given as “no significant effect overall”. The “spikes per unit time in the EEG, overall” value in data set [2] (overall treatment effect) was “significant overall reduction”. The “total hand movements per twenty-four hour period (Q-Sensor)” value in data set [2] (significant for 30 mg/kg T.I.D.) is “reduces total hand movements”.
